Measured values as given in US4032659A (priority 1975, dated 1977).
Counter-ions that a name gives are not always drawn. Like-named read-outs stand apart in the source and are kept apart here.

How the values were obtained:
[1] = tested on: Herpes virus; type: in vivo, mouse; conditions: oral
[2] = tested on: Herpes virus; assay: Herpes virus in eggs (chick embryo survival); type: in vivo, chicken eggs; conditions: all doses
[3] = tested on: virus infections; assay: Antiviral screening program, several viruses; conditions: mouse, in vivo
[4] = tested on: Influenza Ann Arbor virus; assay: Chemoprophylaxis of Influenza Ann Arbor (A1) virus infection in mice; type: in vivo, mouse
[5] = tested on: Influenza PR 8 virus; assay: Chemoprophylaxis of Influenza PR 8 virus infection in mice; type: in vivo, mouse; conditions: oral
[6] = subcutaneous, total dose 500 μg
[7] = subcutaneous, total dose .00005 μg
[8] = subcutaneous, total dose .0005 μg
[9] = subcutaneous, total dose .005 μg
[10] = subcutaneous, total dose .05 μg

Molecule: NN [hydrazine]
- No. animals surviving after 7 days ([1]; total dose 5 μg): 7
- No. animals surviving after 7 days ([1]; total dose .0005 μg): 5
- No. animals surviving when 19/20 controls are dead ([1]; total dose .0005 μg): 5
- No. animals surviving after 7 days ([1]; total dose .005 μg): 6
- No. animals surviving when 19/20 controls are dead ([1]; total dose .005 μg): 3
- No. animals surviving after 7 days ([1]; total dose .05 μg): 5
- No. animals surviving after 7 days ([1]; total dose .5 μg): 6
- No. animals surviving when 19/20 controls are dead ([1]; total dose .5 μg): 1
- No. Living Longer Than Controls, total [2]: 3

Molecule: NNC(N)=O [semicarbazide, hydrochloride]
- activity (in words) [3]: effective against Influenza PR 8 virus, Vaccinia virus in the mouse tail, Herpes virus in eggs, Herpes virus in mice, Neurovaccinia, and Influenza Ann Arbor virus
- No. animals surviving when 19/20 controls are dead ([1]; total dose 5 μg): 4
- No. animals surviving when 19/20 controls are dead ([1]; total dose .05 μg): 4

Molecule: N-hydroxyphthalamide
- activity (in words) [3]: active in the practice of this invention

Molecule: NNc1nncc2ccccc12 [Hydralazine, hydralazine, reference compound]
- activity (in words) [3]: effective against Herpes virus

Molecule: NN [hydrazine, hydrate]
- No. animals surviving after 5 days ([4]; oral, total dose 5 μg): 4
- Survivors ([4]; oral, total dose 5 μg): 0
- No. animals surviving after 5 days ([4]; oral, total dose 50 μg): 4
- Survivors ([4]; oral, total dose 50 μg): 0
- No. animals surviving after 5 days ([4]; oral, total dose 500 μg): 5
- Survivors ([4]; oral, total dose 500 μg): 0
- No. animals surviving after 5 days ([4]; oral, total dose .00005 μg): 6
- Survivors ([4]; oral, total dose .00005 μg): 0
- No. animals surviving after 5 days ([4]; oral, total dose .0005 μg): 6
- Survivors ([4]; oral, total dose .0005 μg): 0
- No. animals surviving after 5 days ([4]; oral, total dose .005 μg): 3
- Survivors ([4]; oral, total dose .005 μg): 0
- No. animals surviving after 5 days ([4]; oral, total dose .05 μg): 3
- Survivors ([4]; oral, total dose .05 μg): 1
- No. animals surviving after 5 days ([4]; oral, total dose .5 μg): 6
- Survivors ([4]; oral, total dose .5 μg): 0
- No. animals surviving after 5 days ([4]; subcutaneous, total dose 5 μg): 6
- No. animals surviving after 7 days ([4]; subcutaneous, total dose 5 μg): 6
- Survivors ([4]; subcutaneous, total dose 5 μg, hydrate): 3
- No. animals surviving after 5 days ([4]; subcutaneous, total dose 50 μg): 4
- No. animals surviving after 7 days ([4]; subcutaneous, total dose 50 μg): 7
- No. animals surviving after 5 days [4, 6]: 3
- No. animals surviving after 7 days [4, 6]: 6
- Survivors [4, 6]: 0
- No. animals surviving after 5 days [4, 7]: 1
- No. animals surviving after 7 days [4, 7]: 1
- Survivors [4, 7]: 0
- No. animals surviving after 5 days [4, 8]: 7
- No. animals surviving after 7 days [4, 8]: 5
- No. animals surviving after 5 days [4, 9]: 4
- No. animals surviving after 7 days [4, 9]: 3
- No. animals surviving after 5 days [4, 10]: 6
- No. animals surviving after 7 days [4, 10]: 4
- No. animals surviving after 5 days ([4]; subcutaneous, total dose .5 μg): 5
- No. animals surviving after 7 days ([4]; subcutaneous, total dose .5 μg): 7
- activity (in words) [3]: active on Influenza PR 8, Vaccinia in the mouse tail, Herpes in eggs, Herpes in mice, and Influenza Ann Arbor
- No. animals surviving after 10 days ([5]; total dose 5 μg): 1
- Survivors ([5]; total dose 5 μg): 0
- No. animals surviving after 10 days ([5]; total dose 50 μg): 1
- Survivors ([5]; total dose 50 μg): 0
- No. animals surviving after 7 days ([5]; total dose .000005 μg): 4
- No. animals surviving after 7 days ([5]; total dose .00005 μg): 0
- No. animals surviving when 18/20 of controls are dead ([5]; total dose .00005 μg): 4
- No. animals surviving after 10 days ([5]; total dose .0005 μg): 1
- No. animals surviving when 18/20 of controls are dead ([5]; total dose .0005 μg): 3
- Survivors ([5]; total dose .0005 μg, hydrate): 1
- No. animals surviving after 7 days ([5]; total dose .005 μg): 5
- No. animals surviving after 10 days ([5]; total dose .005 μg): 3
- No. animals surviving when 18/20 of controls are dead ([5]; total dose .005 μg): 1
- No. animals surviving after 10 days ([5]; total dose .05 μg): 0
- No. animals surviving when 18/20 of controls are dead ([5]; total dose .05 μg): 1
- No. animals surviving after 10 days ([5]; total dose .5 μg): 1
- No. animals surviving when 18/20 of controls are dead ([5]; total dose .5 μg): 1
- Survivors ([5]; total dose .5 μg): 1
